Data: patent US6806276B2, “2-oxoquinoline compounds and pharmaceutical uses thereof” (Japan Tobacco Inc., priority 1999, dated 2004)
Like-named read-outs stand apart in the source and are kept apart here.

What was measured:
[1] = molecular target: T1, human central type cannabinoid receptor (hCB1) (Homo sapiens, UniProt P21554); test: Binding assay (in vitro), [3H]Win55212-2 displacement, membrane fractions of human CB1-CHO; settings: hCB1 expressed in CHO cells, [3H]Win55212-2 2 nM, 30° C. 90 minutes
T1 construct: expressed in transfected cells; host or cells: CHO cells

[2] = molecular target: T2, human peripheral type cannabinoid receptor (hCB2) (Homo sapiens, UniProt P34972); test: Binding assay (in vitro), [3H]Win55212-2 displacement, membrane fractions of human CB2-CHO; settings: for Ki: hCB2 expressed in CHO cells, [3H]Win55212-2 2 nM, 30° C. 90 minutes
T2 construct: expressed in transfected cells; host or cells: CHO cells

[3] = read-out: Ki value Central type receptor (C)
[4] = Ki value Peripheral type receptor (S)
[5] = indicator of selectivity for peripheral type receptors
[6] = read-out: Ki value Peripheral type receptor (S)
[7] = Ki value Central type receptor (C)

T2 sequence (P34972 whole entry): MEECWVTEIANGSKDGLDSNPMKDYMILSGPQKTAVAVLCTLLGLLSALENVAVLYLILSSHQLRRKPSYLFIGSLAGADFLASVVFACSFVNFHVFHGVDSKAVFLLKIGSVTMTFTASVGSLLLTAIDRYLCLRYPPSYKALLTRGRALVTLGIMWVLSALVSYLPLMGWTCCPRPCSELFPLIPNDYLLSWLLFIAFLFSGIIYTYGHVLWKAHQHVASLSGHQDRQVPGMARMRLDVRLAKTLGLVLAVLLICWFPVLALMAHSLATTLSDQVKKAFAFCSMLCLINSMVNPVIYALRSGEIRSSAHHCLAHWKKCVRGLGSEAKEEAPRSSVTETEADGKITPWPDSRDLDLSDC
T1 sequence (P21554 whole entry): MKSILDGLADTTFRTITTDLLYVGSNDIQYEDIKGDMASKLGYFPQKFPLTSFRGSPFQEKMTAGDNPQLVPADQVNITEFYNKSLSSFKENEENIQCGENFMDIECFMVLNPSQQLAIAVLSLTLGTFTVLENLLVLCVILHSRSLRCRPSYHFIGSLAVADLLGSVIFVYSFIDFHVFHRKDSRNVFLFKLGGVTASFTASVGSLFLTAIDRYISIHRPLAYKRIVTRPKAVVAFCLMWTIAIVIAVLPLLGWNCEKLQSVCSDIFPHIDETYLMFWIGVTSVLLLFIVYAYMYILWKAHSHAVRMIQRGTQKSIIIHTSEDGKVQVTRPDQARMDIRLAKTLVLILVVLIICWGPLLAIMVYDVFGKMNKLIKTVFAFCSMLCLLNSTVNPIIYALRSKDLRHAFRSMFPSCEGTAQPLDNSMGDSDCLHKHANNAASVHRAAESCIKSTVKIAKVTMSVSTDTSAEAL

Ki [2, 6] [nM] | SMILES | Ki [1, 3] [nM] | Ki [2, 4] [nM] | C/S (Ki central type receptors / Ki peripheral type receptors) [2, 5] | Ki [1, 7] [nM] | C/S (Ki central type receptors / Ki peripheral type receptors) [2]
– | CCCCCOc1cc2cc(C(=O)OC)c(=O)[nH]c2cc1OC [Example 1-2, 7-methoxy-2-oxo-6-pentyloxy-1,2-dihydroquinoline-3-carboxylic acid methyl ester] | 3670 | 0.014 | 262202 | – | –
– | CCCCCOc1cc2cc(C(=O)OC)c(=O)n(C)c2cc1OC [Example 1-4, 1-methyl-7-methoxy-2-oxo-6-pentyloxy-1,2-dihydroquinoline-3-carboxylic acid methyl ester] | 1630 | 4.49 | 362 | – | –
8.9 | CCCCCOc1c(OC)ccc2cc(C(=O)O)c(=O)[nH]c12 [Example 2-1, 7-methoxy-2-oxo-8-pentyloxy-1,2-dihydroquinoline-3-carboxylic acid] | 4330 | – | 487 | – | –
0.032 | CCCOc1c(OC)ccc2cc(C(=O)O)c(=O)[nH]c12 [Example 2-4, 7-methoxy-2-oxo-8-propoxy-1,2-dihydroquinoline-3-carboxylic acid] | 905 | – | 28273 | – | –
– | CCCCCOc1cc2cc(C(=O)O)c(=O)[nH]c2cc1OC [Example 2-5, 7-methoxy-2-oxo-6-pentyloxy-1,2-dihydroquinoline-3-carboxylic acid] | 434 | 0.2 | – | – | –
– | CCCCCOc1c(OC)ccc2cc(C(=O)O)c(=O)n(C)c12 [Example 2-6, 1-methyl-7-methoxy-2-oxo-8-pentyloxy-1,2-dihydroquinoline-3-carboxylic acid] | 770 | 0.13 | 5923 | – | –
– | CCCCCOc1cc2cc(C(=O)O)c(=O)n(C)c2cc1OC [Example 2-7, 1-methyl-7-methoxy-2-oxo-6-pentyloxy-1,2-dihydroquinoline-3-carboxylic acid] | 381 | 0.42 | 908 | – | –
– | CCCCCOc1c(OC)ccc2cc(C(=O)NCCc3ccncc3)c(=O)[nH]c12 [Example 3-1, 7-methoxy-2-oxo-8-pentyloxy-1,2-dihydroquinoline-3-carboxylic acid (2-pyridine-4-ylethyl)amide] | – | 0.13 ± 0.05 | – | 49 | 372
– | CCOc1c(OC)ccc2cc(C(=O)NCCc3ccncc3)c(=O)[nH]c12 [Example 3-6, 8-ethoxy-7-methoxy-2-oxo-1,2-dihydroquinoline-3-carboxylic acid (2-pyridine-4-ylethyl)amide] | 609 | – | – | – | –
– | CCCCCOc1c(OC)ccc2cc(C(=O)NCCc3ccc(O)cc3)c(=O)[nH]c12 [Example 3-7, 7-methoxy-2-oxo-8-pentyloxy-1,2-dihydroquinoline-3-carboxylic acid [2-(4-hydroxyphenyl)ethyl]amide] | – | 0.48 | 150 | 72 | –
– | CCCCCOc1c(OC)ccc2cc(C(=O)NCCc3ccc(F)cc3)c(=O)[nH]c12 [Example 3-8, 7-methoxy-2-oxo-8-pentyloxy-1,2-dihydroquinoline-3-carboxylic acid [2-(4-fluorophenyl)ethyl]amide] | – | 0.019 | 4275 | 81 | –
– | CCCCOc1c(OC)ccc2cc(C(=O)NCCc3ccncc3)c(=O)[nH]c12 [Example 3-16, 8-butoxy-7-methoxy-2-oxo-1,2-dihydroquinoline-3-carboxylic acid (2-pyridine-4-ylethyl)amide] | 208 | 0.01 | 20805 | – | –
– | CCOc1c(OC)ccc2cc(C(=O)NCCc3ccc(F)cc3)c(=O)[nH]c12 [Example 3-18, 8-ethoxy-7-methoxy-2-oxo-1,2-dihydroquinoline-3-carboxylic acid [2-(4-fluorophenyl)ethyl]amide] | 1750 | 7.1 | 247 | – | –
– | CCCCCOc1c(OC)ccc2cc(C(=O)NCCc3ccccc3F)c(=O)[nH]c12 [Example 3-19, 7-methoxy-2-oxo-8-pentyloxy-1,2-dihydroquinoline-3-carboxylic acid [2-(2-fluorophenyl)ethyl]amide] | – | 0.18 | 272 | 49 | –
– | CCCCCOc1c(OC)ccc2cc(C(=O)NCCc3cccc(F)c3)c(=O)[nH]c12 [Example 3-20, 7-methoxy-2-oxo-8-pentyloxy-1,2-dihydroquinoline-3-carboxylic acid [2-(3-fluorophenyl)ethyl]amide] | – | 0.41 | – | 78 | 191
– | CCCCCOc1c(OC)ccc2cc(C(=O)NCCc3ccc(O)c(OC)c3)c(=O)[nH]c12 [Example 3-21, 7-methoxy-2-oxo-8-pentyloxy-1,2-dihydroquinoline-3-carboxylic acid [2-(4-hydroxy-3-methoxyphenyl)ethyl]amide] | 162 | 0.97 | 167 | – | –
0.2 | CCCCCOc1c(OC)ccc2cc(C(=O)NCCc3ccccc3)c(=O)[nH]c12 [Example 3-23, 7-methoxy-2-oxo-8-pentyloxy-1,2-dihydroquinoline-3-carboxylic acid (2-phenylethyl)amide] | 39 | – | 194 | – | –
– | CCCCCOc1c(OC)ccc2cc(C(=O)NCc3ccc(F)cc3)c(=O)[nH]c12 [Example 3-25, 7-methoxy-2-oxo-8-pentyloxy-1,2-dihydroquinoline-3-carboxylic acid (4-fluorobenzyl)amide] | 444 | 1.29 | 344 | – | –
0.16 | COc1ccc2cc(C(=O)NCCc3ccc(F)cc3)c(=O)[nH]c2c1OC [Example 3-31, 7,8-dimethoxy-2-oxo-1,2-dihydroquinoline-3-carboxylic acid [2-(4-fluorophenyl)ethyl]amide] | 159 | – | 995 | – | –
– | CCCCCOc1cc2cc(C(=O)NCCc3ccc(F)cc3)c(=O)[nH]c2cc1OC [Example 3-32, 7-methoxy-2-oxo-6-pentyloxy-1,2-dihydroquinoline-3-carboxylic acid [2-(4-fluorophenyl)ethyl]amide] | 2400 | 0.036 | 66604 | – | –
– | CCCCCOc1cc2cc(C(=O)NCc3ccc4c(c3)OCO4)c(=O)[nH]c2cc1OC [Example 3-33, 7-methoxy-2-oxo-6-pentyloxy-1,2-dihydroquinoline-3-carboxylic acid (3,4-methylenedioxybenzyl)amide] | 273 | 1.06 | 258 | – | –
– | CCCCCOc1cc2cc(C(=O)NCCN3CCOCC3)c(=O)[nH]c2cc1OC [Example 3-34, 7-methoxy-2-oxo-6-pentyloxy-1,2-dihydroquinoline-3-carboxylic acid (2-morpholinoethyl) amide] | – | 0.011 | 15672 | – | –
– | CCOc1c(OC)ccc2cc(C(=O)NCc3ccc4c(c3)OCO4)c(=O)[nH]c12 [Example 3-35, 8-ethoxy-7-methoxy-2-oxo-1,2-dihydroquinoline-3-carboxylic acid (3,4-methylenedioxybenzyl) amide] | 409 | 0.053 | 7713 | – | –
– | CCCCCOc1c(OC)ccc2cc(C(=O)NCCc3ccc(F)cc3)c(=O)n(C)c12 [Example 3-36, 1-methyl-7-methoxy-2-oxo-8-pentyloxy-1,2-dihydroquinoline-3-carboxylic acid [2-(4-fluorophenyl)ethyl]amide] | 183 | 0.021 | 8695 | – | –
– | CCCCCOc1c(OC)ccc2cc(C(=O)NCCc3ccc(O)cc3)c(=O)n(C)c12 [Example 3-41, 1-methyl-7-methoxy-2-oxo-8-pentyloxy-1,2-dihydroquinoline-3-carboxylic acid [2-(4-hydroxyphenyl)ethyl]amide] | – | 0.35 | 176 | 62 | –
– | CCCCCOc1c(OC)ccc2cc(C(=O)NCc3ccc4c(c3)OCO4)c(=O)n(C)c12 [Example 3-42, 1-methyl-7-methoxy-2-oxo-8-pentyloxy-1,2-dihydroquinoline-3-carboxylic acid (3,4-methylenedioxybenzyl) amide] | 315 | 0.22 | 1430 | – | –
– | CCCCCOc1cc2cc(C(=O)NCCc3ccc(F)cc3)c(=O)n(C)c2cc1OC [Example 3-43, 1-methyl-7-methoxy-2-oxo-6-pentyloxy-1,2-dihydroquinoline-3-carboxylic acid [2-(4-fluorophenyl)ethyl]amide] | 864 | 0.043 | 20093 | – | –
– | CCCCCOc1cc2cc(C(=O)NCCN3CCOCC3)c(=O)n(C)c2cc1OC [Example 3-44, 1-methyl-7-methoxy-2-oxo-6-pentyloxy-1,2-dihydroquinoline-3-carboxylic acid (2-morpholinoethyl)amide] | 193 | 0.18 | 1075 | – | –

SMILES | Ki [2, 6] [nM] | Ki [1, 3] [nM] | Ki [2, 4] [nM] | C/S (Ki central type receptors / Ki peripheral type receptors) [2, 5] | Ki [1, 7] [nM] | C/S (Ki central type receptors / Ki peripheral type receptors) [2]
CCCCOc1c(OC)ccc2cc(C(=O)O)c(=O)[nH]c12 [Example 2-2, 8-butoxy-7-methoxy-2-oxo-1,2-dihydroquinoline-3-carboxylic acid] | 0.77 | 3250 | – | 42172 | – | –
